Assay results taken from patent US12410160B2 (Gilead Sciences, Inc., priority 2021, dated 2025).
Like-named read-outs stand apart in the source and are kept apart here.

Assays:
[1] = molecular target: KHK-C expressed in NRK-52E cells (Homo sapiens (Human), UniProt P50053); assay: KHK-C Cell-based Assay (EC50), NRK CTG, fructose-mediated ATP-depletion
human KHK-A = human KHK-A (Homo sapiens (Human), UniProt P50053); assay: KHK Biochemical Assay (IC50), ADP-Glo, KHK-A; details: average of at least two separate assays
How it was run: (§1)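 His-tagged enzyme expressed in BL21 (DE3), Ni-NTA purified. Compounds, serially diluted 1:3 in DMSO, pre-incubated 30 min with enzyme in 50 mM Hepes pH 7.4, 140 mM KCl, 5 mM MgCl2, 0.01% Triton-X, then ATP and fructose added; 4 h at room temperature. ADP formation read by ADP-Glo luminescence.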

human KHK-C = human KHK-C (Homo sapiens (Human), UniProt P50053); assay: KHK Biochemical Assay (IC50), ADP-Glo, KHK-C; details: average of at least two separate assays
How it was run: as §1

Chain of human KHK-C (P50053 whole entry): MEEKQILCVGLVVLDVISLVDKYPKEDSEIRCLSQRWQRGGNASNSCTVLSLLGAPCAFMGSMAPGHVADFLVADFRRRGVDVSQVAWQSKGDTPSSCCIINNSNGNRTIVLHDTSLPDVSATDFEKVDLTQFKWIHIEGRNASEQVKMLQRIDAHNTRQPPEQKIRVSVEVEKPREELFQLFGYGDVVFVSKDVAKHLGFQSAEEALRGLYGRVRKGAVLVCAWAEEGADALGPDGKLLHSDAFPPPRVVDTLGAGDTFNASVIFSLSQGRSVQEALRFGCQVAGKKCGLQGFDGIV
Chain of KHK-C expressed in NRK-52E cells (P50053 whole entry): as above
Chain of human KHK-A (P50053 other isoform, or with tags, fused parts or gaps): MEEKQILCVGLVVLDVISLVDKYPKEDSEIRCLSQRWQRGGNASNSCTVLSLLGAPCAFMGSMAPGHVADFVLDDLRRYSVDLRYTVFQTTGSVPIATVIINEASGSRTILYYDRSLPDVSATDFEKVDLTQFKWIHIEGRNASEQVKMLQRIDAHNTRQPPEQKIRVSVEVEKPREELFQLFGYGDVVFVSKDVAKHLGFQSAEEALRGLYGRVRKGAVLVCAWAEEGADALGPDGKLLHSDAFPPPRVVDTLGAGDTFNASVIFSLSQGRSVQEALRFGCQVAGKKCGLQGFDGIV

Compound	EC50 [1] [nM]	IC50 (human KHK-A; ADP-Glo) [nM]	IC50 (human KHK-C; ADP-Glo) [nM]	IC50 (human KHK-A) [nM]	IC50 (human KHK-C) [nM]	EC50 ([1]; read-out: NRK CTG EC50, NRK-52E cells, Cell-Titer Glo, 25 mM fructose) [nM]
CC(=O)N1C[C@H](C(=O)O)[C@@H](c2cccc(-c3nc(N4CC[C@@H]4C)nc4c3CCC4)c2)C1 (mixture of isomers) [Example 145, (3R,4S)-1-acetyl-4-(3-(2-((S)-2-methylazetidin-1-yl)-6,7-dihydro-5H-cyclopenta[d]pyrimidin-4-yl)phenyl)pyrrolidine-3-carboxylic acid]	> 5000	83.7	125			
C[C@H]1CCN1c1nc2c(c(-c3ccc4c(c3)[C@]3(C[C@H]3C#N)C(=O)N4)n1)CCC2 (mixture of isomers) [Example 410, rac-(1R,2R)-5′-(2-((S)-2-methylazetidin-1-yl)-6,7-dihydro-5H-cyclopenta[d]pyrimidin-4-yl)-2′-oxospiro[cyclopropane-1,3′-indoline]-2-carbonitrile]	47.5			37.6	40.8	
C[C@H]1CCN1c1nc2c(c(-c3ccc4c(c3)[C@]3(C[C@@H]3C#N)C(=O)N4)n1)CCC2 (mixture of isomers) [Example 411, rac-(1R,2S)-5′-(2-((S)-2-methylazetidin-1-yl)-6,7-dihydro-5H-cyclopenta[d]pyrimidin-4-yl)-2′-oxospiro[cyclopropane-1,3′-indoline]-2-carbonitrile]	473			66.3	117	
C[C@H]1CCN1c1nc2c(c(-c3ccc4c(c3)[C@]3(C[C@H]3C(N)=O)C(=O)N4)n1)CCC2 (mixture of isomers) [Example 412, rac-(1R,2R)-5′-(2-((S)-2-methylazetidin-1-yl)-6,7-dihydro-5H-cyclopenta[d]pyrimidin-4-yl)-2′-oxospiro[cyclopropane-1,3′-indoline]-2-carboxamide]	406			57.3	29.2	
C[C@H]1CCN1c1nc2c(c(-c3ccc4c(c3)[C@]3(C[C@@H]3C(N)=O)C(=O)N4)n1)CCC2 (mixture of isomers) [Example 413, rac-(1R,2S)-5′-(2-((S)-2-methylazetidin-1-yl)-6,7-dihydro-5H-cyclopenta[d]pyrimidin-4-yl)-2′-oxospiro[cyclopropane-1,3′-indoline]-2-carboxamide]	750			65.4	74.4	
COC(=O)[C@@H]1C[C@@]12C(=O)Nc1ccc(-c3nc(N4CC[C@@H]4C)nc4c3CCC4)cc12 (racemic) [Example 406, rac-methyl (1R,2R)-5′-(2-((S)-2-methylazetidin-1-yl)-6,7-dihydro-5H-cyclopenta[d]pyrimidin-4-yl)-2′-oxospiro[cyclopropane-1,3′-indoline]-2-carboxylate]	397			841	1040	
COC(=O)[C@H]1C[C@@]12C(=O)Nc1ccc(-c3nc(N4CC[C@@H]4C)nc4c3CCC4)cc12 (racemic) [Example 407, rac-methyl (1R,2S)-5′-(2-((S)-2-methylazetidin-1-yl)-6,7-dihydro-5H-cyclopenta[d]pyrimidin-4-yl)-2′-oxospiro[cyclopropane-1,3′-indoline]-2-carboxylate]	506			235	229	
C[C@H]1CCN1c1nc2c(c(-c3ccc4c(c3)[C@]3(C[C@H]3C(=O)O)C(=O)N4)n1)CCC2 (racemic) [Example 408, rac-(1R,2R)-5′-(24(8)-2-methylazetidin-1-yl)-6,7-dihydro-5H-cyclopenta[d]pyrimidin-4-yl)-2′-oxospiro[cyclopropane-1,3′-indoline]-2-carboxylic acid]	> 5000			158	100	
C[C@H]1CCN1c1nc2c(c(-c3ccc4c(c3)[C@]3(C[C@@H]3C(=O)O)C(=O)N4)n1)CCC2 (racemic) [Example 409, rac-(1R,28)-5′-(24(8)-2-methylazetidin-1-yl)-6,7-dihydro-5H-cyclopenta[d]pyrimidin-4-yl)-2′-oxospiro[cyclopropane-1,3′-indoline]-2-carboxylic acid]	> 5000			41	34.3	
C[C@H]1CCN1c1nc2c(c(-c3ccc4c(c3)C[C@@H]3[C@@H](C(N)=O)[C@H]43)n1)CCC2 (relative stereo) [Example 137, (1R,1aR*,6aS*)-4-(2-((S)-2-methylazetidin-1-yl)-6,7-dihydro-5H-cyclopenta[d]pyrimidin-4-yl)-1,1a,6,6a-tetrahydrocyclopropa[a]indene-1-carboxamide]	100	216	90.3			
C[C@H]1CCN1c1nc2c(c(-c3ccc4c(c3)C[C@@H]3[C@H](C(N)=O)[C@H]43)n1)CCC2 (relative stereo) [Example 138, (1S,1aR*,6aS*)-4-(2-((S)-2-methylazetidin-1-yl)-6,7-dihydro-5H-cyclopenta[d]pyrimidin-4-yl)-1,1a,6,6a-tetrahydrocyclopropa[a]indene-1-carboxamide]	1800	294	220			
CC(=O)N1C[C@H](C(N)=O)[C@@H](c2cccc(-c3nc(N4CC[C@@H]4C)nc4c3CCC4)c2)C1 (relative stereo) [Example 146, (3R*,4S*)-1-acetyl-4-(3-(2-((S)-2-methylazetidin-1-yl)-6,7-dihydro-5H-cyclopenta[d]pyrimidin-4-yl)phenyl)pyrrolidine-3-carboxamide]	423	118	116			
C[C@H]1[C@H](C(N)=O)CN1c1nc2c(c(-c3ccc(C(N)=O)cc3)n1)CCC2 (relative stereo) [Example 266, (rac)-(2S*,3R*)-1-(4-(4-carbamoylphenyl)-6,7-dihydro-5H-cyclopenta[d]pyrimidin-2-yl)-2-methylazetidine-3-carboxamide]	> 5000	> 5000	> 5000			
C[C@H]1CCN1c1nc2c(c(-c3cccc([C@H]4C[C@@H]4c4nn[nH]n4)c3)n1)CCC2 (relative stereo) [Example 270, 4-(3-((1S*,2S*)-2-(2H-tetrazol-5-yl)cyclopropyl)phenyl)-2-((S)-2-methylazetidin-1-yl)-6,7-dihydro-5H-cyclopenta[d]pyrimidine]	2140	62.3	44.7			
C[C@H](NS(C)(=O)=O)c1cccc(-c2nc(N3C[C@@H](O)[C@@H]3C)nc3c2CCC3(F)F)c1 [Example 745, N-[(1S)-1-[3-[7,7-difluoro-2-[(2S,3R)-3-hydroxy-2-methyl-azetidin-1-yl]-5,6-dihydrocyclopenta[d]pyrimidin-4-yl]phenyl]ethyl]methanesulfonamide]	162				25.4	
C[C@H]1CCN1c1nc(-c2cc(F)c3c(c2)OCCNC3=O)c2c(n1)C(F)(F)CC2 [Example 747, 8-[7,7-difluoro-2-[(2S)-2-methylazetidin-1-yl]-5,6-dihydrocyclopenta[d]pyrimidin-4-yl]-6-fluoro-3,4-dihydro-2H-1,4-benzoxazepin-5-one]	15.1				6.1	
C[C@@H](NS(C)(=O)=O)c1ccc(-c2nc(N3CC[C@@H]3C)nc3c2CCC3(F)F)cc1 [Example 748, N-[(1R)-1-[4-[7,7-difluoro-2-[(2S)-2-methylazetidin-1-yl]-5,6-dihydrocyclopenta[d]pyrimidin-4-yl]phenyl]ethyl]methanesulfonamide]	85.9				23.2	
C[C@@H](NS(C)(=O)=O)c1cccc(-c2nc(N3CC[C@@H]3C)nc3c2CCC3(F)F)c1 [Example 749, N-[(1R)-1-[3-[7,7-difluoro-2-[(2S)-2-methylazetidin-1-yl]-5,6-dihydrocyclopenta[d]pyrimidin-4-yl]phenyl]ethyl]methanesulfonamide]	69.7				18.8	
C[C@H](NS(C)(=O)=O)c1ccc(-c2nc(N3CC[C@@H]3C)nc3c2CCC3(F)F)cc1 [Example 750, N-[(1S)-1-[4-[7,7-difluoro-2-[(2S)-2-methylazetidin-1-yl]-5,6-dihydrocyclopenta[d]pyrimidin-4-yl]phenyl]ethyl]methanesulfonamide]	14.8				9	
C[C@H](NS(C)(=O)=O)c1cccc(-c2nc(N3CC[C@@H]3C)nc3c2CCC3(F)F)c1 [Example 751, N-[(1S)-1-[3-[7,7-difluoro-2-[(2S)-2-methylazetidin-1-yl]-5,6-dihydrocyclopenta[d]pyrimidin-4-yl]phenyl]ethyl]methanesulfonamide]	17.9				10.8	
C[C@H]1CCN1c1nc2c(c(-c3ccc(C(N)=O)cn3)n1)CCC2 [Example 752, 6-[2-[(2S)-2-methylazetidin-1-yl]-6,7-dihydro-5H-cyclopenta[d]pyrimidin-4-yl]pyridine-3-carboxamide]	223				79.2	
C[C@H]1CCN1c1nc2c(c(-c3ccc4c(c3)NCCNC4=O)n1)CCC2 [Example 753, 8-[2-[(2S)-2-methylazetidin-1-yl]-6,7-dihydro-5H-cyclopenta[d]pyrimidin-4-yl]-1,2,3,4-tetrahydro-1,4-benzodiazepin-5-one]	33.1				10.7	
C[C@H]1CCN1c1nc(-c2ccc3c(c2)OCCC3NS(C)(=O)=O)c2c(n1)C(F)(F)CC2 (stereo partly drawn) [Example 759, N-[7-[7,7-difluoro-2-[(2S)-2-methylazetidin-1-yl]-5,6-dihydrocyclopenta[d]pyrimidin-4-yl]chroman-4-yl]methanesulfonamide]	6.9				2.3	
(1S)-1-[4-[7,7-difluoro-2-[(2S)-2-methylazetidin-1-yl]-5,6-dihydrocyclopenta[d]pyrimidin-4-yl]phenyl]-2,2-difluoro-ethanamine [Example 652]					23.6	193
